The values that follow come from patent publication US12116353B1, “Crystalline chloro-n-(4-(morpholinomethyl)phenyl)benzamide and crystalline hydrochloride salt” (GEN1E LIFESCIENCES INC., priority 2024, dated 2024).

The nature of the series: Equilibrium solubility in aqueous buffers. The following applies: thermodynamic from solid, LC-MS/MS. Format: physicochemical. Here is the method: The equilibrium solubility of crystalline compound (1) and crystalline compound (2) was measured in various aqueous buffers. The pH 4.0 and pH 5.0 buffers were prepared by combining 50 mL of 0.2 M potassium biphthalate with 150 mL of H2O, and then adjusting to pH 4.0 or pH 5.0 with 10 N HCl. The pH 6.0 buffer was prepared by combining 50 mL of 0.2 M KH2PO4 with 150 mL of H2O, and then adjusting to pH 6.0 with 10 N NaOH. The pH 7.4 buffer was prepared by combining 50 mL of 0.2 M KH2PO4 with 150 mL of H2O, and then adjusting to pH 7.4 with 10 N NaOH. At least 1 mg of powder for each compound was combined with 1 mL of each buffer to make a saturated mixture. The samples were shaken overnight on a Thermomixer® at room temperature. The samples were then passed through a […] PTFE syringe filter. The filtrate was sampled and diluted in duplicate as appropriate into a mixture of 1:1 buffer:acetonitrile (ACN) prior to analysis. All samples were assayed by LC-MS/MS using electrospray ionization against standards prepared in a mixture of 1:1 assay buffer:ACN. Standard concentrations ranged from 1.0 μM to 0.3 nM. The samples were analyzed by LCMS using a Waters Acuity® UPLC BEH Phenyl 30×2.1 mm, 1.7 μm liquid chromatography column and a PE Sciex® API 4000 mass spectrometer equipped with a Turbo Ionspray.

In brackets after ≈: the same amount, converted by molar mass.

In general, solubility refers to how much of the substance goes into solution per volume. A low value points to a poorly soluble substance. Turning to `Cl.O=C(Nc1ccc(CN2CCOCC2)cc1)c1ccc(Cl)cc1` [Crystalline Compound (1), 4-chloro-N-(4-(morpholinomethyl)phenyl)benzamide hydrochloride], the solubility turned out to be 12.5 mM (aqueous potassium biphthalate buffer, aqueous buffer pH 4.0, shaken overnight at room temperature); 10.2 mM (aqueous potassium biphthalate buffer, aqueous buffer pH 5.0, shaken overnight at room temperature); 8.17 mM (aqueous potassium phosphate (KH2PO4) buffer, aqueous buffer pH 6.0, shaken overnight at room temperature).
`O=C(Nc1ccc(CN2CCOCC2)cc1)c1ccc(Cl)cc1` [Crystalline Compound (2), 4-chloro-N-(4-(morpholinomethyl)phenyl)benzamide] showed a solubility (aqueous potassium phosphate (KH2PO4) buffer, aqueous buffer pH 7.4, shaken overnight at room temperature) of 0.0125 mM (≈ 4.14 µg/mL).
